Results reported in US9096581B2, “Fluoroethyl thiamine or salts thereof and application thereof in preparation of anticoccidial drugs” (GUANGZHOU ORIGMOL FEED-ADDITIVE CO., LTD, priority 2012, dated 2015).
“Also recorded” adds a separate entry of the source. Where a name gives a salt, the structure may show the parent alone.

How the values were obtained:
Assay type in all cases: in vivo
Eimeria acervulina HT = experiment: Anticoccidial effect on Eimeria acervulina in chickens (Embodiment 5); settings: 125 ppm in feed; for average weight gain / number of oocysts in feces: 7th day after infecting; for survival rate: chickens; for relative decrement rate of oocysts: vs infected non-drug control; for relative weight gain rate: vs non-infected non-drug control
Excerpt: (§1) 1-day-old Lingnan yellow chickens, purchased from Poultry Research Unit, Bureau of Animal Husbandry, Guangdong Academy of Agricultural Sciences, bred under coccidium-free environment, and subjected to grouping and experiment after no coccidium oocyst is found in feces through microscopic examination when the chickens are 14 days old.
Eimeria acervulina HT, having no resistance to various anticoccidial drugs. Breeding and amplifying in chickens before the experiment, collecting fresh eggs, sporulating, and preserving at 4° C. for later use.
(§2) Weighing the 14-day-old experiment chickens one by one, rejecting emaciated chickens or overweighted chicks, selecting healthy chickens of which the individual body weight difference is within 20 g, and dividing to 4 groups with 30 chickens in each group. Groups 1 and 2 are respectively a non-drug-applied and non-coccidium-killed control group and a coccidium-infected and non-drug-applied control group, and Groups 3 and 4 are added with fluoroethyl thiamine hydrochloride or amprolium according to Table 8. Feeding with feed containing different drugs on the day of experiment grouping, enabling the chickens to freely take in the feed, and feeding the chickens until the experiment ends.
(§3) Except the non-coccidium-infected and non-drug-applied control group, giving each experiment chicken in each experiment group with 5×10^5 eimeria acervulina sporulated oocysts via the crop on the next day of the grouping day. During experiment, observing and recording the spirit, appetite, bloody feces situation, death count and the like of the chickens every day. On the 7th day after infecting, respectively weighing each group, calculating the relative weight gain rate, simultaneously collecting feces samples, and counting the number of oocysts per gram of feces.
2.3.1 Weight gain: respectively weighing each chicken when the experiment starts and ends, and calculating the average weight gain and relative weight gain rate. The relative weight gain rate=(the average weight gain in the experiment groups/the average weight gain in the non-infected and non-drug-applied control group)×100%.
2.3.2 Survival rate: recording the number of dead chickens of each group, autopsying to determine the death cause, and calculating the survival rate. The survival rate=(the total number of the chickens in the experiment groups−the number of the chickens dying of coccidium infection during the experiment)/the total number of the chickens in the experiment groups×100%.
2.3.3 oocyst counting and relative decrement rate of oocysts: on the 7th day after coccidium infection, digesting the collected fresh feces with 10% sodium hypochlorite for 15 min, counting the number of the coccidium oocysts per gram of feces through a blood counting chamber, and calculating the relative decrement rate of the oocysts in the feces of each experiment group. The relative decrement rate of oocysts=(the number of the oocysts per gram of feces in the coccidium-killed and non-drug-applied control group−the number of the oocysts per gram of feces in the experiment groups)/the number of the oocysts per gram of feces in the coccidium-killed and non-drug-applied control group×100%.

[1] = test system: Eimeria tenella GD strains; experiment: Comparison with other anticoccidial drugs in chickens infected with Eimeria tenella GD (Embodiment 3); set-up: oocyst value: scale not given here; settings: for anticoccidial index (ACI) / number of oocysts in cecum / lesion value / survival rate / average weight gain / bloody feces scoring / oocyst value / relative weight gain rate: 125 ppm in feed; for number of oocysts in cecum / lesion value / average weight gain: 7th day; for lesion value: cecum, scale 0-40; for survival rate / average weight gain / bloody feces scoring: chickens; for bloody feces scoring: 5 days after infecting, score 0-4; for oocyst value: converted per Table 2; for relative weight gain rate: vs non-infected non-drug control
Excerpt: as §1, with “to” for “to grouping and”, “old. Perfect compound feed for chickens: prepared by Huizhou Yuantai Feed Co. Ltd., and containing no antibacterial or anticoccidial additive.” for “old.”
Eimeria tenella GD strains, having no resistance to various anticoccidial drugs. Breeding and amplifying in one chicken before the experiment, collecting fresh oocysts, sporulating, and preserving at 4° C. for later use.
Weighing the 14-day-old experiment chickens one by one, rejecting emaciated chickens or overweighted chickens, selecting healthy chickens of which the individual body weight difference is within 20 g, and dividing into 6 groups with 30 chickens in each group. Groups 1 and 2 are respectively a non-drug-applied and non-coccidium-killed control group and a coccidium-infected and non-drug-applied control group, and Groups 3-6 are respectively added with different anticoccidial drugs according to Table 4. Feeding with feed containing different drugs on the day of experiment grouping, enabling the chickens to freely take in the feed, and feeding the chickens until the experiment ends.
Except the non-coccidium-infected and non-drug-applied control group, giving each experiment chicken in each experiment group with 2.5×10^5 eimeria tenella sporulated oocysts via the crop on next day of the grouping day. During experiment, observing and recording the spirit, appetite, bloody feces situation, death count and the like of the chickens every day. Performing bloody feces scoring on the chickens in each group 5 days after infecting. On the 7th day, respectively weighing all the chickens in each group, then autopsying them, observing cecum lesions and counting the oocysts in the cecum.
The evaluation standard is the same with Embodiment 2.

[2] = test system: Eimeria maxima PY strains; experiment: Anticoccidial effect on Eimeria maxima in chickens (Embodiment 6); settings: 125 ppm in feed; for average weight gain / number of oocysts in feces: 7th day after infecting; for survival rate: chickens; for relative decrement rate of oocysts: vs infected non-drug control; for relative weight gain rate: vs non-infected non-drug control
Excerpt: as §1
Eimeria maxima PY strains, having no resistance to various anticoccidial drugs. Breeding and amplifying in chickens before the experiment, collecting fresh oocysts, sporulating, and preserving at 4° C. for later use.
as §2, with “chickens,” for “chicks,”, “10.” for “8.”, “in” for “in the”
as §3, with “3×10^5” for “5×10^5”, “maxima” for “acervulina”
The anticoccidial effect evaluation is the same with Embodiment 5.

| SMILES | average weight gain (Eimeria acervulina HT) | number of oocysts in feces (Eimeria acervulina HT) | survival rate (Eimeria acervulina HT) | relative decrement rate of oocysts (Eimeria acervulina HT) | relative weight gain rate (Eimeria acervulina HT) | anticoccidial index (ACI) [1] | number of oocysts in cecum [1] | lesion value [1] | survival rate [1] | average weight gain [1] | bloody feces scoring [1] | oocyst value [1] | relative weight gain rate [1] | average weight gain [2] | number of oocysts in feces [2] | survival rate [2] | relative decrement rate of oocysts [2] | relative weight gain rate [2] | other results |
| --- | --- | --- | --- | --- | --- | --- | --- | --- | --- | --- | --- | --- | --- | --- | --- | --- | --- | --- | --- |
| CCc1ncc(C[n+]2csc(CCF)c2C)c(N)n1 [fluoroethyl thiamine hydrochloride, 3-[(4-amino-2-ethyl-5-pyrimidyl)-methylene]-5-(2-fluoroethyl)-4-methyl thiazole chloride hydrochloride] | 186.5 g | 6500 g⁻¹ | 100% | 97.6% | 96.7% | 201.6 | 0 ×10^6/chicken | 0 | 100% | 175.6 g/chicken | 0 | 0 | 101.6% | 176.3 g | 3700 g⁻¹ | 100% | 91.2% | 98.0% | inhibition of eimeria acervulina, in words (Eimeria acervulina HT; hydrochloride): significant inhibition effect on the eimeria acervulina; also recorded: superior to amprolium in eimeria acervulina inhibition; comparison with the other anticoccidial drugs ([1]; 125 ppm in feed (maduramicin 5 ppm), hydrochloride): superior to amprolium and maduramicin in lesion and oocyst value; also recorded: superior to nicarbazin in weight gain; inhibition of eimeria maxima, in words ([2]; hydrochloride): significant inhibition effect on eimeria maxima; also recorded: superior to amprolium in eimeria maxima inhibition |
| CCCc1ncc(C[n+]2ccccc2C)c(N)n1 [amprolium, Amprolium, reference compound] | 166.6 g | 29800 g⁻¹ | 100% | 88.8% | 86.4% | 191.2 | 0.566 ×10^6/chicken | 4 | 100% | 166.3 g/chicken | 0 | 1 | 96.2% | 167.4 g | 8600 g⁻¹ | 100% | 79.5% | 93.1% | – |
